Source: article PMC6193951, “Intra- and inter-protein couplings of backbone motions underlie protein thiol-disulfide exchange cascade” (Scientific Reports, 2018)

T1: B. subtilis ArsC (Bs_ArsC), reduced state re-ArsC (Bacillus subtilis, UniProt P45947)
T1 construct: full-length, 139 residues; recombinant, prepared as previously reported; reduced state (C10, C82, C89 free thiols)
T1 sequence (P45947 1-139): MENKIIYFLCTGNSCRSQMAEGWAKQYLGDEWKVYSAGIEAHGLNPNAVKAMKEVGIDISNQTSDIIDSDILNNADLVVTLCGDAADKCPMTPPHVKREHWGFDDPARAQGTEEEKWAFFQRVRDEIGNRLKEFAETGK

T2: B. subtilis arsenate reductase ArsC_C10SC15AC82S mutant (ArsC in the Trx-complexed state) (B. subtilis, UniProt P45947 1-139, C10S | C15A | C82S, C89 forms an intermolecular disulfide bond with Trx (C89^ArsC-C29^Trx); 15N-labeled in one sample, unlabeled in the other)
T2 construct: Thioredoxin-coupled arsenate reductase ArsC, Bacillus subtilis; triple mutant C10S/C15A/C82S used to trap the mixed-disulfide complex; also called c-ArsC; source: purity greater than 95% by SDS-PAGE
T2 sequence: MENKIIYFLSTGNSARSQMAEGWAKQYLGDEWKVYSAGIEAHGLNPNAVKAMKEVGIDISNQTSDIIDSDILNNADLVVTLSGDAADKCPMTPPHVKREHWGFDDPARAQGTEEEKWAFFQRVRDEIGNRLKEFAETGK


How the values were obtained:
[1] = molecular target: T1, B. subtilis ArsC (Bs_ArsC), reduced state re-ArsC; assay: isothermal titration calorimetry; type: binding
[2] = molecular target: T2, B. subtilis arsenate reductase …; assay: preparation of a mixed-disulfide complex (DTNB incubation), studied by NMR (15N CPMG RD, CEST); Trx_C32S and ArsC_C10SC15AC82S linked by an intermolecular disulfide with the 5,5-dithiobis(2-nitrobenzoic acid) incubation protocol; NMR samples in 20 mM Tris-HCl (pH 6.85), 40 mM KCl, 20 mM urea, 20 mM Na2SO4; 25 °C; conditions: both partners purified

binding result [2] | Molecule | Kd [1] [µM]
– | O=S(=O)(O)O [sulfate] | 700
binds | B. subtilis thioredoxin Trx_C32S mutant (Trx in the ArsC-complexed state) (enzyme, C29 in the mixed disulfide with ArsC C89 (C89^ArsC-C29^Trx); 15N-labeled in one sample, unlabeled in the other, Thioredoxin (Trx), Bacillus subtilis; C32S mutant used to trap the mixed-disulfide complex; also called c-Trx; source: purity greater than 95% by SDS-PAGE) MAIVKATDQSFSAETSEGVVLADFWAPWCGPSKMIAPVLEELDQEMGDKLKIVKIDVDENQETAGKYGVMSIPTLLVLKDGEVVETSVGFKPKEALQELVNKHL | –
